From patent US9512107B2, “Therapeutically active compositions and their methods of use” (Agios Pharmaceuticals, Inc., priority 2012, dated 2016)

Tests used:
[1] = test system: U87MG pLVX-IDH2 R140Q-neo cells; experiment: U87MG pLVX-IDH2 R140Q-neo cell based assay, 2-HG in media by LC-MS at 48 hours; conditions: for IC50: Homo sapiens, U-87 MG
Method: U87MG pLVX-IDH2 R140Q-neo cells are grown in T125 flasks in DMEM containing 10% FBS, 1× penicillin/streptomycin and 500 μg/mL G418. They are harvested by trypsin and seeded into 96 well white bottom plates at a density of 5000 cell/well in 100 μl/well in DMEM with 10% FBS. No cells are plated in columns 1 and 12. Cells are incubated overnight at 37° C. in 5% CO2. The next day compounds are made up at 2× concentration and 100 ul are added to each cell well. The final concentration of DMSO is 0.2% and the DMSO control wells are plated in row G. The plates are then placed in the incubator for 48 hours. At 48 hours, 100 ul of media is removed from each well and analyzed by LC-MS for 2-HG concentrations. The cell plate is placed back in the incubator for another 24 hours. At 72 hours post compound addition, 10 mL/plate of Promega Cell Titer Glo reagent is thawed and mixed. The cell plate is removed from the incubator and allowed to equilibrate to room temperature. Then 100 ul of reagent is added to each well of media. The cell plate is then placed on an orbital shaker for 10 minutes and then allowed to sit at room temperature for 20 minutes. The plate is then read for luminescence with an integration time of 500 ms to determine compound effects on growth inhibition.

IDH2 R140Q = target: T1, IDH2 R140Q (Homo sapiens, UniProt P48735, R140Q); experiment: IDH2 R140Q enzymatic assay (cofactor depletion, similar format); format: biochemical; conditions: for IC50: read-out: Enz R140Q
T1 sequence (P48735 40-452 R140Q): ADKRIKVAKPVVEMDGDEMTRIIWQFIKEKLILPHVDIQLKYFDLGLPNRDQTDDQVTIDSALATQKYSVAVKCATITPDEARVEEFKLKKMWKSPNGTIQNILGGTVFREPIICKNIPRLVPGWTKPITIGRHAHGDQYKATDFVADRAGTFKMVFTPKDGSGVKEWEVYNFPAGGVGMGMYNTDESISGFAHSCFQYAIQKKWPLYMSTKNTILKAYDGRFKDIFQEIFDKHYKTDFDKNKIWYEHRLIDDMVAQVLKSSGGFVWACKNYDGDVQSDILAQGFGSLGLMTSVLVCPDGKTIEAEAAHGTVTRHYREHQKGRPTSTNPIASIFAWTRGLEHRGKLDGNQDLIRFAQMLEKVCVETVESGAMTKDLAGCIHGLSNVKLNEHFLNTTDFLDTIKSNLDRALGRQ
Method: [The source words this procedure for another variant and says it was used here with some conditions changed.] Compounds are assayed for IDH2 R172K inhibitory activity through a cofactor depletion assay. […] The reaction is terminated by the addition of a second enzyme, diaphorase, and a corresponding substrate, resazurin. Diaphorase reduces resazurin to the highly fluorescent resorufin with the concomitant oxidation of NADPH to NADP, both halting the IDH2 reaction by depleting the available cofactor pool and facilitating quantitation of the amount of cofactor remaining after a specific time period through quantitative production of an easily detected fluorophore.
The test compound is then incubated for one hour at room temperature with the enzyme; before starting the IDH2 reaction with the addition of 10 μl of substrate mix containing 50 μM NADPH and 6.3 mM α-KG in the buffer described above. After a further one hour of incubation at room temperature, the reaction is halted and the remaining NADPH measured through conversion of resazurin to resorufin by the addition of 25 μl Stop Mix (36 μg/ml diaphorase enzyme and 60 μM resazurin; in buffer).

Row | IC50 [1] [µM] | IC50 (IDH2 R140Q) [µM] | Enz R140Q (IDH2 R140Q) | SMILES | Cell R140Q [1]
1 | < 0.1 | < 0.1 | – | CC(C)Nc1nc(Nc2cnoc2)nc(-c2ccccc2)n1 [Compound 309, N^2-isopropyl-N^4-(isoxazol-4-yl)-6-phenyl-1,3,5-triazine-2,4-diamine] | –
2 | < 0.1 | 0.1 to 1 | – | Cc1cc(Nc2nc(NC(C)C)nc(-c3ccccc3)n2)cc(C)n1 [Compound 310, N^2-(2,6-dimethylpyridin-4-yl)-N^4-isopropyl-6-phenyl-1,3,5-triazine-2,4-diamine] | –
3 | 0.1 to 1 | 0.1 to 1 | – | CC(C)Nc1nc(Nc2ccc(OCC3CC3)nc2)nc(-c2ccccc2)n1 [Compound 311, N^2-(6-(cyclopropylmethoxy)pyridin-3-yl)-N^4-isopropyl-6-phenyl-1,3,5-triazine-2,4-diamine] | –
4 | 1 to 10 | 0.1 to 1 | – | CC(C)Nc1nc(Nc2ccc(OC(C)C)nc2)nc(-c2ccccc2)n1 [Compound 312, N^2-(6-isopropoxypyridin-3-yl)-N^4-isopropyl-6-phenyl-1,3,5-triazine-2,4-diamine] | –
5 | < 0.1 | < 0.1 | – | CC(C)Nc1nc(Nc2cncs2)nc(-c2ccccc2)n1 [Compound 313, N^2-isopropyl-6-phenyl-N^4-(thiazol-5-yl)-1,3,5-triazine-2,4-diamine] | –
6 | – | 1 to 10 | – | CC(C)Nc1nc(Nc2ccncc2C(F)(F)F)nc(-c2ccccc2)n1 [Compound 314, N^2-isopropyl-6-phenyl-N^4-(3-(trifluoromethyl)pyridin-4-yl)-1,3,5-triazine-2,4-diamine] | No Fit
7 | < 0.1 | < 0.1 | – | CC(C)Nc1nc(Nc2ccnc(C3CC3)c2)nc(-c2ccccc2)n1 [Compound 315, N^2-(2-cyclopropylpyridin-4-yl)-N^4-isopropyl-6-phenyl-1,3,5-triazine-2,4-diamine] | –
8 | 0.1 to 1 | 0.1 to 1 | – | CC(C)Nc1nc(Nc2ccc(C3CC3)nc2)nc(-c2ccccc2)n1 [Compound 316, N^2-(6-cyclopropylpyridin-3-yl)-N^4-isopropyl-6-phenyl-1,3,5-triazine-2,4-diamine] | –
9 | < 0.1 | < 0.1 | – | CS(=O)(=O)c1cccc(Nc2nc(NC3CCC3)nc(-c3ccccc3F)n2)c1 [Compound 317, N^2-cyclobutyl-6-(2-fluorophenyl)-N^4-(3-(methylsulfonyl)phenyl)-1,3,5-triazine-2,4-diamine] | –
10 | < 0.1 | < 0.1 | – | Fc1cncc(Nc2nc(NC3CCC3)nc(-c3ccccc3F)n2)c1 [Compound 318, N-Cyclobutyl-6-(2-fluoro-phenyl)-N′-(5-fluoro-pyridin-3-yl)-[1,3,5]triazine-2,4-diamine] | –
11 | < 0.1 | 0.1 to 1 | – | CC(C)(O)CNc1nc(Nc2ccnc(C(F)(F)F)c2)nc(-c2ccccc2F)n1 [Compound 319, 1-(4-(2-fluorophenyl)-6-(2-(trifluoromethyl)pyridin-4-ylamino)-1,3,5-triazin-2-ylamino)-2-methylpropan-2-ol] | –

Continued, molecule first:

Row | SMILES | IC50 [1] [µM] | IC50 (IDH2 R140Q) [µM] | Enz R140Q (IDH2 R140Q) | Cell R140Q [1]
12 | CC(C)Nc1nc(Nc2ccc(Cl)nc2)nc(-c2ccccc2)n1 [Compound 289, N^2-(6-chloropyridin-3-yl)-N^4-isopropyl-6-phenyl-1,3,5-triazine-2,4-diamine] | 0.1 to 1 | < 0.1 | – | –
13 | CC(C)Nc1nc(Nc2ccccc2)nc(-c2cccc(N)n2)n1 [Compound 290, 6-(6-aminopyridin-2-yl)-N^2-isopropyl-N^4-phenyl-1,3,5-triazine-2,4-diamine] | < 0.1 | 0.1 to 1 | – | –
14 | CCC(CO)Nc1nc(Nc2ccncc2)nc(-c2ccccc2)n1 (stereo not drawn) [Compound 291, 2-(4-phenyl-6-(pyridin-4-ylamino)-1,3,5-triazin-2-ylamino)butan-1-ol] | – | – | No Fit | No Fit
15 | CC(C)Nc1nc(Nc2ccncc2F)nc(-c2ccccc2)n1 [Compound 292, N^2-(3-fluoropyridin-4-yl)-N^4-isopropyl-6-phenyl-1,3,5-triazine-2,4-diamine] | – | – | No Fit | No Fit
16 | CC(C)Nc1nc(Nc2ccnc(N(C)C)c2)nc(-c2ccccc2)n1 [Compound 293, N^2-(2-(dimethylamino)pyridin-4-yl)-N^4-isopropyl-6-phenyl-1,3,5-triazine-2,4-diamine] | < 0.1 | < 0.1 | – | –
17 | OCCNc1nc(Nc2ccncc2)nc(-c2ccccc2)n1 [Compound 294, 2-(4-phenyl-6-(pyridin-4-ylamino)-1,3,5-triazin-2-ylamino)ethanol] | – | – | No Fit | No Fit
18 | c1ccc(-c2nc(Nc3ccncc3)nc(N[C@@H]3C[C@@H]4CC[C@H]3C4)n2)cc1 [Compound 295, N^2-((1S,2R,4R)-bicyclo[2.2.1]heptan-2-yl)-6-phenyl-N^4-(pyridin-4-yl)-1,3,5-triazine-2,4-diamine] | < 0.1 | < 0.1 | – | –
19 | c1ccc(Nc2nc(N[C@@H]3C[C@@H]4CC[C@H]3C4)nc(-c3ccccc3)n2)cc1 [Compound 296, N^2-((1S,2R,4R)-bicyclo[2.2.1]heptan-2-yl)-N^4,6-diphenyl-1,3,5-triazine-2,4-diamine] | < 0.1 | 0.1 to 1 | – | –
20 | c1ccc(-c2nc(Nc3ccncc3)nc(NC3C4COCC43)n2)cc1 (stereo not drawn) [Compound 297, N^2-(3-oxabicyclo[3.1.0]hexan-6-yl)-6-phenyl-N^4-(pyridin-4-yl)-1,3,5-triazine-2,4-diamine] | < 0.1 | < 0.1 | – | –
21 | CC(C)Nc1nc(Nc2ccnc(N3CCOCC3)c2)nc(-c2ccccc2)n1 [Compound 298, N^2-isopropyl-N^4-(2-morpholinopyridin-4-yl)-6-phenyl-1,3,5-triazine-2,4-diamine] | < 0.1 | < 0.1 | – | –
22 | CC(C)Nc1nc(Nc2ccnc(N3CCC3)c2)nc(-c2ccccc2)n1 [Compound 299, N^2-(2-(azetidin-1-yl)pyridin-4-yl)-N^4-isopropyl-6-phenyl-1,3,5-triazine-2,4-diamine] | 0.1 to 1 | < 0.1 | – | –
23 | c1ccc(-c2nc(NCC3COC3)nc(Nc3ccncc3)n2)cc1 [Compound 300, N^2-(oxetan-3-ylmethyl)-6-phenyl-N^4-(pyridin-4-yl)-1,3,5-triazine-2,4-diamine] | 0.1 to 1 | 0.1 to 1 | – | –
24 | CC(C)Nc1cc(Nc2nc(NC(C)C)nc(-c3ccccc3)n2)ccn1 [Compound 301, N^2-isopropyl-N^4-(2-(isopropylamino)pyridin-4-yl)-6-phenyl-1,3,5-triazine-2,4-diamine] | < 0.1 | 0.1 to 1 | – | –
25 | CNc1cc(Nc2nc(NC(C)C)nc(-c3ccccc3)n2)ccn1 [Compound 302, N^2-isopropyl-N^4-(2-(methylamino)pyridin-4-yl)-6-phenyl-1,3,5-triazine-2,4-diamine] | 0.1 to 1 | < 0.1 | – | –
26 | CNc1ccc(Nc2nc(NC(C)C)nc(-c3ccccc3)n2)cn1 [Compound 303, N^2-isopropyl-N^4-(6-(methylamino)pyridin-3-yl)-6-phenyl-1,3,5-triazine-2,4-diamine] | – | 1 to 10 | – | No Fit
27 | OC1CCCC(Nc2nc(Nc3ccncc3)nc(-c3ccccc3)n2)C1 (stereo not drawn) [Compound 304, 3-(4-phenyl-6-(pyridin-4-ylamino)-1,3,5-triazin-2-ylamino)cyclohexanol] | – | 1 to 10 | – | No Fit
28 | COC1CC(Nc2nc(Nc3ccncc3)nc(-c3ccccc3)n2)C1 (stereo not drawn) [Compound 305, N^2-(3-methoxycyclobutyl)-6-phenyl-N^4-(pyridin-4-yl)-1,3,5-triazine-2,4-diamine] | – | > 10 | – | No Fit
29 | CS(=O)(=O)c1cccc(Nc2nc(NC3CCOCC3)nc(-c3ccccc3)n2)c1 [Compound 306] | < 0.1 | 0.1 to 1 | – | –
30 | CC(C)Nc1nc(Nc2cnn(C)c2)nc(-c2ccccc2)n1 [Compound 308, N^2-isopropyl-N^4-(1-methyl-1H-pyrazol-4-yl)-6-phenyl-1,3,5-triazine-2,4-diamine] | 0.1 to 1 | < 0.1 | – | –
